The results in this text go back to patent publication US20090081197A1 (Palatin Technologies, Inc., priority 2007, published 2009).

The target in experiment [1] is T1, MC1-R (Mus musculus, UniProt Q01727).
T1 construct: B-16 mouse melanoma cells (containing MC1-R); endogenous in cells
Briefly: Competitive inhibition assay using [I^125]-NDP-α-MSH, B-16 mouse melanoma cell membranes. It is filed as binding. The conditions noted are these: for inhibition at 1 µM: 1 μM test compound, read-out: Inhibition at 1 μM (NDP-α-MSH) In Normal System, MC1-R; for Ki: read-out: Ki (nM) (NDP-α-MSH) In Normal System, MC1-R. The essentials: (§1)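 Tracer was 0.4 nM for MC3-R and MC5-R, 0.2 nM for MC4-R and 0.1 nM for MC1-R. Bound radioactivity was gamma-counted after filtration; values are triplicate means, with results below 0% reported as 0%.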

The target of experiment [2] is T1, MC1-R. Put plainly: cAMP functional activity assay in B-16 mouse melanoma cells. The conditions noted are these: 1 μM concentration where stated. It is filed as cell-based. As to the method:
(§2) General method for EC50 determination in functional activity assay. […] Data analysis and EC50 values were determined using nonlinear regression analysis with Prism Graph-Pad software.
(§3) Functional status. The agonist/antagonist status with respect to MC1-R, MC-3R, MC4-R and MC5-R of certain compounds of the invention was determined. Antagonistic activity was determined by measuring the inhibition of α-MSH-induced or NDP-α-MSH-induced cAMP levels following exposure to graded doses of compounds as in the preceding descriptions.

For experiment [3], the target named is T2, MC4-R (Homo sapiens, UniProt P32245). Put plainly: cAMP functional activity assay in HEK-293 cells, normal system. Conditions: for intrinsic activity at MC4-R in a normal system: normal receptor density system, NDP-α-MSH = 1.0; for functional status at MC4-R in cAMP assay: normal system, 1 μM concentration where stated. Type of experiment: cell-based. Further details: expressed in transfected cells; host or cells: HEK-293. On the technique in general: Changes in cAMP serve as a functional read-out for many G protein-coupled receptors.

The target in experiment [4] is T2, MC4-R. Briefly: cAMP agonist stimulation, high receptor density system (10 ng/mL doxycycline). Conditions: for Efficacy/Intrinsic Activity: 10 ng/mL doxycycline, high receptor density hMC4-R system, NDP-α-MSH maximal cAMP = 1.0.
Experiment [5] is described as follows: Penile erection induction in male rats. Type of experiment: in vivo. Conditions: rat. The essentials: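 Male Sprague-Dawley rats (200-250 g), groups of 4-8, dosed IV or ICV at various doses and observed individually for penile erections. Only statistically relevant increases over vehicle-control mean PEs count as induction; IV responses below 1.0 PEs/rat treated as equivocal, some retested ICV.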

A short description of experiment [6]: IP (and IN) food intake, mice. It is filed as in vivo. Conditions: mouse, IP, 4 hours. An outline of the steps: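 Male Sprague-Dawley rats dosed IV (0.5-3, up to 10 mg/kg) or IP (0.5-10, up to 50 mg/kg); male C57BL/6 mice dosed IP. Change in food intake and body weight over 24 h post-dose versus 1-week vehicle baseline, with 48 and 72 h reversal checks.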
For experiment [7], the target named is T2, MC4-R. Put plainly: Competitive inhibition assay using [I^125]-NDP-α-MSH, hMC4-R membranes. Type of experiment: binding. Further details: host or cells: TREx-293 (HEK-293 stably expressing Tet repressor). Conditions: 1 μM test compound; read-out: Inhibition at 1 μM (NDP-α-MSH) In Normal System, MC4-R. The essentials: as §1
Experiment [8] concerns the target T3, MC5-R (Homo sapiens, UniProt P33032). Briefly: Competitive inhibition assay using [I^125]-NDP-α-MSH, hMC5-R membranes. Type of experiment: binding. The arrangement: expressed in transfected cells. The conditions noted are these: 1 μM test compound; read-out: Inhibition at 1 μM (NDP-α-MSH) In Normal System, MC5-R. The essentials:
as §1

The target of experiment [9] is T2, MC4-R. Put plainly: cAMP agonist stimulation, low receptor density system (0.1 ng/mL doxycycline). Conditions: for Efficacy/Intrinsic Activity: 0.1 ng/mL doxycycline, low receptor density hMC4-R system, NDP-α-MSH maximal cAMP = 1.0.
For experiment [10], the target named is T4, MC3-R (Homo sapiens, UniProt P41968). Put plainly: Competitive inhibition assay using [I^125]-NDP-α-MSH, hMC3-R membranes. It is filed as binding. Further details: expressed in transfected cells. Conditions: 1 μM test compound; read-out: Inhibition at 1 μM (NDP-α-MSH) In Normal System, MC3-R. An outline of the steps: as §1
Experiment [11] is described as follows: ICV food intake and body weight change. It is filed as in vivo. The conditions noted are these: rat, 1 nmol, 24 hours. The essentials:
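Rats fitted with intracerebroventricular cannulas and fed ad libitum got a single ICV dose of vehicle or compound (1-3 nmol). Food intake and body-weight change over the 24 h after dosing were compared with a 1-week vehicle baseline. Values at 48 h and 72 h were also recorded to follow return to baseline.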

In experiment [12] the target is T3, MC5-R. Put plainly: cAMP functional activity assay in HEK-293 cells. Type of experiment: cell-based. Conditions: 1 μM concentration where stated. Further details: expressed in transfected cells; host or cells: HEK-293. The protocol: as §2, §3
Experiment [13] deals with T4, MC3-R. Briefly: cAMP functional activity assay in HEK-293 cells. Type of experiment: cell-based. The arrangement: expressed in transfected cells; host or cells: HEK-293. Conditions: 1 μM concentration where stated. The protocol:
as §2, §3

The nature of experiment [14]: IV and IP food intake and body weight change, rats. It is filed as in vivo. The conditions noted are these: rat, IV, 10 mg/kg, 24 hours. As to the method: IV and IP food intake and body weight change. Change in food intake and body weight was evaluated for selected compounds. Male Sprague-Dawley rats or male C57BL/6 mice were utilized. Animals were individually housed in conventional plexiglass hanging cages and maintained on a controlled 12 hour on/off light cycle. Water and powdered (LabDiet, 5P00 Prolab RMH 3000) or pelleted (Harlan Teklad 2018 18% Protein Rodent Diet) food was provided ad libitum. For 1 week before treatment, 24-hour food intake and body weight change was recorded to assess a baseline for the group during vehicle treatment. The rats were dosed IV with vehicle or selected compounds (0.5-3 mg/kg, and in some cases up to 10 mg/Kg) or dosed intraperitoneally (IP) with vehicle or selected compounds (0.5-10 mg/kg, and in some cases up to 50 mg/kg). Mice were dosed IP. The changes in body weight and food intake for the 24 hour period after dosing were determined. The changes in body weight and food intake for the 48 hour and 72 hour periods after dosing were also measured to determined reversal of changes in body weight and food intake effects back to baseline levels.

The target of experiment [15] is T2, MC4-R. Briefly: Assay for neutral antagonist, Schild analysis (pA2) against NDP-α-MSH. It is filed as cell-based. Further details: expressed in transfected cells; host or cells: HEK-293. Conditions: Schild analysis vs NDP-α-MSH. As to the method:
Assay for Neutral Antagonist. […] These studies were carried out in HEK-293 cells expressing the MC4-R receptor. Cells were incubated with the compounds in the presence of the agonist NDP-α-MSH and the extent of antagonism was measured by the decrease in the level of intracellular cAMP. Screening the compounds for antagonists was done at a single concentration of NDP-α-MSH (1.0 nM) over a compound concentration range of 0.5-5000 nM.
Experimental details were similar to the analysis for agonistic activity described above. Briefly, cells were pre-incubated for 30 minutes with the test compounds at concentrations between 0.5 nM and 5000 nM. The cells were then stimulated with NDP-α-MSH at a concentration of 1 nM for 1 hour. For Schild analysis, the interactions were studied using at least 3 concentrations of the compounds, separated by a log unit, over a full range of the agonist (0.005-5000 nM). cAMP levels was measured in the cell lysates after appropriate dilution. Nonlinear regression analysis with Prism Graph-Pad software was used for Schild analysis and to obtain EC50 values. pA2 values were derived from the Schild plot of the data.

T3 sequence (P33032 whole entry): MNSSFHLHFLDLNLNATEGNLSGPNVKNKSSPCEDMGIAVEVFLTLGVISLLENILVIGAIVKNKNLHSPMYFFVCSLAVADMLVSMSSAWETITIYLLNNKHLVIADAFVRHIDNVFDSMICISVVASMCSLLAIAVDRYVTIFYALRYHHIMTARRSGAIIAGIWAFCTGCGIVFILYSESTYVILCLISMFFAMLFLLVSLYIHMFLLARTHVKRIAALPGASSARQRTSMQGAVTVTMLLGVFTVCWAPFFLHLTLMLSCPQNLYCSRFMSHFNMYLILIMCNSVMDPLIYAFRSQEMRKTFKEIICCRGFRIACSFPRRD
T2 sequence (P32245 whole entry): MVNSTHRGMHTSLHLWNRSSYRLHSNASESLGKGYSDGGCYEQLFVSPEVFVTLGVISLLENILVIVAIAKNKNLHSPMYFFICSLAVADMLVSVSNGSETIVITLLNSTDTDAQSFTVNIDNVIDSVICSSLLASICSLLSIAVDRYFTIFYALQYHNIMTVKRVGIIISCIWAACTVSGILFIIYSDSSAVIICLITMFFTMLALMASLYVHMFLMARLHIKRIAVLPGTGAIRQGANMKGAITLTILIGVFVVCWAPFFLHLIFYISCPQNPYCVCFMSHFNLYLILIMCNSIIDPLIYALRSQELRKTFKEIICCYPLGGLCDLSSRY
T4 sequence (P41968 whole entry): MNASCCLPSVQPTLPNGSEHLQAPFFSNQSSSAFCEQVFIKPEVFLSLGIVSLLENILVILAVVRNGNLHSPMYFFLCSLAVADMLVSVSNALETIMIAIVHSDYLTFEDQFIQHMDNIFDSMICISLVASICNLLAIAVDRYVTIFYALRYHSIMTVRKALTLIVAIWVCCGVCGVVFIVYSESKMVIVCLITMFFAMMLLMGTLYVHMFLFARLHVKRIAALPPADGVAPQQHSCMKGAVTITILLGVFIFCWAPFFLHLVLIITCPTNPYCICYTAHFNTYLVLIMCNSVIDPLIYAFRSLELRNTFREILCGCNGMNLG
T1 sequence (Q01727 whole entry): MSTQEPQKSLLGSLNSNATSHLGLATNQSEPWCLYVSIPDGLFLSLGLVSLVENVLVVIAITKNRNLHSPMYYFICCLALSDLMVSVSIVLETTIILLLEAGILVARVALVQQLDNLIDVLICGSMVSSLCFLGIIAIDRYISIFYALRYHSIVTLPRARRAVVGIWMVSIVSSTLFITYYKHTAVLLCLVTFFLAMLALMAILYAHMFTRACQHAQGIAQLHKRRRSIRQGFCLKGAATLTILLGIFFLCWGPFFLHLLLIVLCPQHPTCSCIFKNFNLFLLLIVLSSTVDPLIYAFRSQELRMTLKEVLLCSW

The inhibition is the share of the control response that was lost under treatment. A word on the Ki: it is the dissociation constant of the complex between target and ligand, obtained from inhibition or displacement. A word on the EC50: it is the concentration needed to bring the measured effect to its halfway point. On to `Cc1cc(Cl)ccc1C[C@@H](N)C(=O)N1C[C@@H](C)N(CCc2c[nH]c3ccccc23)C[C@@H]1CCCNC(=N)N` [Example 9, N-(3-{1-(2(R)-Amino-(4-chloro-2-methyl-phenyl)-propionyl)-5(R)-methyl-4-[2-(1H-indol-3-yl)-ethyl]-piperazin-2(S)-yl}-propyl)-guanidine], for which the inhibition at 1 µM came out at 40% in [1], 98% in experiment [7], 75% in experiment [8] and 74% in [10]. Besides, the Ki in [1] amounted to 1730 nM. Besides, in [2], the “functional status at MC1-R in cAMP assay” value was “no intrinsic activity (intrinsic activity below 0.1 (10%) is classified as inactive or having no intrinsic activity)”. Moreover, the “intrinsic activity at MC4-R in a normal system” value in experiment [3] amounted to 1. In addition, the “functional status at MC4-R in cAMP assay” value in experiment [3] is “full agonist”. Moreover, the EC50 in experiment [4] is 22 nM. Moreover, the “Efficacy/Intrinsic Activity” value is 0.73 in experiment [4] and “None” in experiment [9]. For the same compound, in experiment [5] (ICV), the “Penile Erection ICV” value is on record as “No”. The penile erection response entry in experiment [5] (ICV, 0.01 to 10 nmol) is given as “no penile erection response”; in [5] (IV, 0.3 to 30 μg/kg) it was “no penile erection response”. In addition, the “Penile Erection IV” value in experiment [5] (IV) is on record as “No”. In addition, in experiment [6] (3 mg/kg), the “maximal decrease in food intake” value was 10%. Besides, the “decrease in body weight” value in experiment [11] was 2%. For the same compound, in [11], the “decrease in food intake” value stood at 16%. In addition, the “functional status at MC5-R in cAMP assay” value in experiment [12] is “no intrinsic activity (intrinsic activity below 0.1 (10%) is classified as inactive or having no intrinsic activity)”. Also, in [13], the “functional status at MC3-R in cAMP assay” value was “no intrinsic activity (intrinsic activity below 0.1 (10%) is classified as inactive or having no intrinsic activity)”.

Take `Cc1cc(Cl)ccc1C[C@@H](N)C(=O)N1C[C@@H](C)N(C(=O)Cc2ccc3ccccc3c2)C[C@@H]1CCCNC(=N)N` [Example 10, N-{3-[1-[2(R)-Amino-3-(4-chloro-2-dimethyl-phenyl)-propionyl]-5(R)-methyl(2-naphthalen-2-yl-acetyl)-piperazin-2(S)-yl]-propyl}-guanidine]: the inhibition at 1 µM in [1] was determined as 3%; in experiment [7], 96%; in experiment [8] it was 36%; in experiment [10], 34%. For the same compound, the Ki in experiment [1] was found to be 462 nM. Besides, the “maximal decrease in food intake” value was 33% in experiment [14] and 27% in [6] (10 mg/kg). Also, the “functional status at MC1-R in cAMP assay” value in experiment [2] was “partial agonist (intrinsic activity between 0.1 (10%) and 0.7 (70%) is classified as a partial agonist)”. The “intrinsic activity at MC4-R in a normal system” value in experiment [3] worked out at 0.9. Besides, the “functional status at MC4-R in cAMP assay” value in experiment [3] is given as “agonist (intrinsic activity of 0.7 (70%) or higher is classified as an agonist)”. Besides, the EC50 in experiment [4] stood at 26 nM; in [9], 38 nM. In addition, the “Efficacy/Intrinsic Activity” value in [4] is on record as 0.69; in experiment [9], 0.23. Moreover, the “Penile Erection IV” value in [5] (IV) is “Yes*”. Also, in experiment [5] (IV, 0.3 to 30 μg/kg), the animals responding entry was “not more than 66%”. Besides, the “functional status at MC5-R in cAMP assay” value in [12] was “agonist (intrinsic activity of 0.7 (70%) or higher is classified as an agonist)”. In addition, the “functional status at MC3-R in cAMP assay” value in experiment [13] was “partial agonist (intrinsic activity between 0.1 (10%) and 0.7 (70%) is classified as a partial agonist)”.

On to `N=C(N)NCCC[C@H]1C(=O)N2C(CC[C@@H]2COc2ccc3ccccc3c2)N1C(=O)[C@@H](Cc1ccc(Cl)cc1Cl)NC(=O)[C@@H]1Cc2ccccc2CN1` (stereo partly drawn) [Example 22, (S)-1,2,3,4-Tetrahydro-isoquinoline-3-carboxylic acid {(R)-1-(2,4-dichloro-benzyl)-2-[(2S,5R)-2-(3-guanidino-propyl)-5-(naphthalen-2-yloxymethyl)-3-oxo-hexahydro-pyrrolo[1,2-a]imidazol-1-yl]-2-oxo-ethyl}-amide], for which the inhibition at 1 µM in experiment [1] came to 75%; in [7], 100%; in experiment [8], 96%; in experiment [10], 88%. For the same compound, the Ki in experiment [1] came to 111 nM. Moreover, the “functional status at MC4-R in cAMP assay” value in experiment [3] is reported as “antagonist”. This compound displayed an EC50 in experiment [4] of 64 nM. Further, the “Efficacy/Intrinsic Activity” value in experiment [4] was 0.30; in [9], “None”. The “Penile Erection IV” value in [5] (IV) is reported as “No”. Also, in experiment [5] (IV), the penile erection response entry is recorded as “no penile erection response”. Besides, the Kb in [15] (read-out: pA2 value as antagonist at MC4-R in a normal system (converted)) is 7.94 nM. In experiment [11], the “decrease in food intake” value is given as 22%.

As for “N-{3-[1-[2(R)-Amino-3-(2-methyl, 4-chloro-phenyl)-propionyl]-5(R)-methyl-4-(2-naphthalen-2-yl-ethyl)-piperazin-2(S)-yl]-propyl}-guanidine [Example 26]”, the “functional status at MC4-R in cAMP assay” value in experiment [3] was “no intrinsic activity (intrinsic activity below 0.1 (10%) is classified as inactive or having no intrinsic activity)”. In addition, the “pA2 value as antagonist at MC4-R in a normal system” value in [15] is reported as 8.3.
